Measured values from US12391698B2, “Substituted piperidines and piperazines and methods for the treatment of CNS disorders” (SUVEN LIFE SCIENCES LIMITED, priority 2022, dated 2025).
Where a name gives a salt, the structure may show the parent alone. Read-outs that look alike come from different tables or passages of the source.

Experiments:
[1] = target: T1, cloned human 5-HT1A receptor (Homo sapiens, UniProt P08908); assay: Determination of Ki at 5-HT1A receptor (radioligand binding, [3H]-8-Hydroxy DPAT); conditions: HEK293-EBNA recombinant cells, [3H]-8-Hydroxy DPAT 0.8 nM
T1 construct: expressed in transfected cells; host or cells: HEK293-EBNA
T1 sequence (P08908 1-422): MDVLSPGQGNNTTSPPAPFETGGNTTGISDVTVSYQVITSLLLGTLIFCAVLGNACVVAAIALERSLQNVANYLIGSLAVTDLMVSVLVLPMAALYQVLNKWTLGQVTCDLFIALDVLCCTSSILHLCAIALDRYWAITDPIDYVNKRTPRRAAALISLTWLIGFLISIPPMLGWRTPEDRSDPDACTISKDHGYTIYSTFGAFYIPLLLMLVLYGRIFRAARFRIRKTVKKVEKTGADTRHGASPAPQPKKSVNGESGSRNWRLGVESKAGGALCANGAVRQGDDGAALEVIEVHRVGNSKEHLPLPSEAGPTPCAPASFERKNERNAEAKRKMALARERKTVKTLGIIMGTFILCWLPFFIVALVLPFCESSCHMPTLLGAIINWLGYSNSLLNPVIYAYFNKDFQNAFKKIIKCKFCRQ
How it was run: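 Membranes from HEK293-EBNA cells expressing recombinant human 5-HT1A were incubated with 0.8 nM [3H]-8-hydroxy-DPAT for 2 h at r.t. in pH 7.4 Tris-HCl buffer with EDTA, MgSO4 and ascorbic acid. Non-specific binding was defined with 0.1 mM U92016A; bound radioactivity after filtration was compared with controls.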

[2] = target: T2, hD2S (cloned human dopamine D2S receptor) (Homo sapiens, UniProt P14416); assay: Determination of Ki at D2S receptor (radioligand binding, [3H]-Raclopride); conditions: CHO-K1 recombinant cells, [3H]-Raclopride 4 nM
T2 construct: expressed in transfected cells; host or cells: CHO-K1
How it was run: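 Displacement of 4 nM [3H]-Raclopride from membranes of CHO-K1 cells expressing the receptor, 2 h at r.t. in 50 mM Tris-HCl pH 7.4 with 120 mM NaCl, 5 mM KCl, 5 mM MgCl2, 1 mM EDTA. Non-specific binding defined with 0.1 mM haloperidol; filter-bound radioactivity compared with control.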

[3] = target: T3, recombinant human D2S receptor (Homo sapiens, UniProt P14416); assay: Determination of Kb at D2S receptor, pCRE-Luc reporter gene assay in CHO cells; format: cell-based; conditions: for agonist activity at human recombinant D2S receptor / antagonistic activity at human recombinant D2S receptor: pCRE-Luc reporter gene assay; for Kb: with 0.3 μM Dopamine and 1 μM forskolin, luciferase readout
T3 construct: expressed in transfected cells
Experimental: (§1) A stable CHO cell line expressing recombinant human Das receptor and pCRE-Luc reporter system was used for cell-based assay. The assay offers a non-radioactive based approach to determine binding of a compound to GPCRs. In this specific assay, the level of intracellular cAMP which is modulated by activation or inhibition of the receptor is measured. The recombinant cells harbor luciferase reporter gene under the control of cAMP response element.
(§2) The above cells were grown in 96 well clear bottom white plates in Hams F12 medium containing 10% fetal bovine serum (FBS). Prior to the addition of compounds or standard agonist, cells were serum starved overnight. Increasing concentrations of test compound were added along with 0.3 μM of Dopamine and 1 μM of forskolin in Opti-MEM medium to the cells. The incubation was continued at 37° C. in CO2 incubator for 4 hours. Medium was removed and cells were washed with phosphate buffered saline. The cells were lysed and luciferase activity was measured in a Luminometer. Luminescence units were plotted against the compound concentrations using GraphPad Prism software. EC50 values of the compounds were defined as the concentration required in reducing the luciferase activity by 50%. The Kb values were calculated by feeding the concentration of agonist used in the assay and its EC50 value in the same software.
References: European Journal of Pharmacology, 2005, 515, 10-19.

[4] = target: T4, recombinant human 5-HT1A receptor (Homo sapiens, UniProt P08908); assay: Determination of Kb at 5-HT1A receptor, pCRE-Luc reporter gene assay in CHO cells; format: cell-based
T4 construct: expressed in transfected cells
T4 sequence (P08908 1-422): T1 sequence (P08908 1-422)
Experimental: as §1, with “5-HT1A” for “Das”
as §2, with “1” for “0.3”, “U92016A” for “Dopamine”

dopamine receptor = assay: Reserpine-induced dihydroxyphenylalanine (DOPA) accumulation assay in rat striatum; format: in vivo; conditions: s.c.
Experimental: Reserpine (5.0 mg/kg, s.c.) was injected, after which rats were fasted for 18 h before sacrifice. […] Each rat was sacrificed and the striatum was dissected out of the whole brain on ice. Each striatum was weighed and homogenized individually in buffer containing 0.01 N hydrochloric acid and 0.2 mg/ml L-cysteine. Supernatants were subjected for quantification of DOPA using HPLC coupled to electrochemical detector.

[5] = system: Dopamine and norepinephrine levels in prefrontal cortex and striatum; assay: Modulation in dopamine and norepinephrine levels in prefrontal cortex and striatum (microdialysis); format: in vivo; conditions: male Wistar rats; for mean maximum increase in dopamine levels in prefrontal cortex / mean maximum increase in norepinephrine levels in prefrontal cortex: s.c. (so in the source), basal = 100%

T3 sequence (P14416 1-414 isoform P14416-2): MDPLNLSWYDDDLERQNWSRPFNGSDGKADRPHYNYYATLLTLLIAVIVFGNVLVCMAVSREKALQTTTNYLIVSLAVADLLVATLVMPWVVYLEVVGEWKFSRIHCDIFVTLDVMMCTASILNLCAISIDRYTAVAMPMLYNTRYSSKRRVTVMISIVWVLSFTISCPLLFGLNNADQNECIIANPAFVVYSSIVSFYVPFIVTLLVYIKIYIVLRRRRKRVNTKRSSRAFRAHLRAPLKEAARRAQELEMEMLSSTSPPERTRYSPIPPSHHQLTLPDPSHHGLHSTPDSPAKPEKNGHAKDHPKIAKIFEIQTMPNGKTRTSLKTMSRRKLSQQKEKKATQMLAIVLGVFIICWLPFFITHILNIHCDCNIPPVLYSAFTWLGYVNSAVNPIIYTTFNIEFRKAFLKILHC
T2 sequence (P14416 1-414 isoform P14416-2): as above

Structure (SMILES) | Ki ([1]; read-out: Ki h5-HT1A) | Ki ([2]; read-out: Ki hD2S) | agonist activity at human recombinant D2S receptor [3] | antagonistic activity at human recombinant D2S receptor [3] | Kb [3] | agonist activity at human recombinant 5-HT1A receptor ([4]; pCRE-Luc reporter gene assay) | antagonistic activity at human recombinant 5-HT1A receptor ([4]; pCRE-Luc reporter gene assay) | Kb ([4]; with 1 μM U92016A and 1 μM forskolin, luciferase readout) | change in reserpine elevated DOPA levels in striatum (dopamine receptor; 10 mg/kg, rat, reserpine 5.0 mg/kg) | effect of pre-treatment on apomorphine's decrease of reserpine-induced DOPA accumulation (dopamine receptor; pre-treatment before apomorphine 0.1 mg/kg, rat striatum) | mean maximum increase in dopamine levels in prefrontal cortex ([5]; 3 mg/kg) | mean maximum increase in norepinephrine levels in prefrontal cortex ([5]; 3 mg/kg) | mean maximum increase in dopamine levels in prefrontal cortex ([5]; 10 mg/kg) | mean maximum increase in norepinephrine levels in prefrontal cortex ([5]; 10 mg/kg) | change in dopamine levels in striatum [5] | Ki ([1]; Ki h5-HT1A) | Ki ([2]; Ki hD2S)
O=C1C[C@@H]2CCCN2C(=O)N1CCCCN1CCN(c2nsc3ccccc23)CC1 [Example 2, 2-[4-(4-Benzo[d]isothiazol-3-yl-piperazin-1-yl)-butyl]-tetrahydro-pyrrolo[1,2-c]pyrimidine-1,3-dione oxalate] | 0.06 nM | 5.4 nM | no detectable agonist activity | antagonistic activity | 33 nM | no detectable agonist activity | antagonistic activity | 2.3 nM | no change | blocked the effects of apomorphine | 326±24% | 187±30% | 458±91% | 368±99% | no change | – | –
O=C1C[C@@H]2C[C@H](F)CN2C(=O)N1CCCCN1CCN(c2nsc3ccccc23)CC1 [Example 9, 2-[4-(4-Benzo[d]isothiazol-3-yl-piperazin-1-yl)-butyl]-6-fluoro-tetrahydro-pyrrolo[1,2-c]pyrimidine-1,3-dione oxalate] | 0.89 nM | 2.78 nM | – | – | – | – | – | – | – | – | – | – | – | – | – | – | –
O=C1C[C@@H]2C[C@H]3C[C@H]3N2C(=O)N1CCCCN1CCN(c2nsc3ccccc23)CC1 [Example 11, 3-[4-(4-Benzo[d]isothiazol-3-yl-piperazin-1-yl)-butyl]-hexahydro-1b,3-diaza-cyclopropa[a]indene-2,4-dione oxalate] | – | – | – | – | – | – | – | – | – | – | – | – | – | – | – | 0.29 nM | 0.62 nM
O=C1C[C@@H]2CCCN2C(=O)N1CCCCN1CCN(c2cccc3sccc23)CC1 [Example 4, 2-[4-(4-Benzo[b]thiophen-4-yl-piperazin-1-yl)-butyl]-tetrahydro-pyrrolo[1,2-c]pyrimidine-1,3-dione oxalate] | 0.195 nM | 1.83 nM | no detectable agonist activity | antagonistic activity | 54.4 nM | – | – | – | – | – | – | – | – | – | – | – | –
